Read-outs that look alike come from different tables or passages of the source.
Columns and labels:
[1] = system: Staphylococcus aureus USA300 JE2; test: Broth microdilution (MIC/MBC); type: cell-based; conditions: USA300 JE2, human clinical isolate
S. aureus ATCC BAA-1556 [2] = test: Broth microdilution (MIC/MBC); type: cell-based; conditions: Staphylococcus aureus, ATCCBAA1556; ATCC BAA-1556, human clinical isolate
[3] = system: S. aureus CC398 (in house strain); test: Broth microdilution (MIC/MBC); type: cell-based; conditions: Staphylococcus aureus; CC398, veterinary clinical isolate
[4] = system: Enterococcus faecalis JEO72G7B; test: Broth microdilution (MIC/MBC); type: cell-based; conditions: veterinary clinical isolate
[5] = system: Escherichia coli E2 (in house strain); test: Broth microdilution (MIC/MBC); type: cell-based; conditions: E2, human clinical isolate
[6] = system: eight Gram-positive pathogenic bacteria; test: Broth microdilution, summary over Gram-positive isolates; type: cell-based
[7] = system: three Gram-negative pathogenic bacteria; test: Broth microdilution, summary over Gram-negative isolates; type: cell-based
S. aureus ATCC BAA-1556 [8] = test: Broth microdilution with 20% human serum; type: cell-based, Staphylococcus aureus
Procedure: (§1) In addition, whether serum proteins affected the activity of JBC 1847 against three S. aureus strains (USA300 JE2, ATCC BAA-1556 and CC398 in house strain) was investigated. Broth microdilution assays analog to previously described, with a 20% human serum (Sigma-Aldrich, Brøndby, Denmark) concentration were carried for three S. aureus strains (Table 1). MIC and MBC values were determined as previously described.

[9] = system: S. aureus CC398 in house strain; test: Broth microdilution with 20% human serum; type: cell-based, Staphylococcus aureus
Procedure: as §1

S. aureus USA300 JE2 [10] = test: Broth microdilution with 20% human serum; type: cell-based, Staphylococcus aureus
Procedure: as §1

S. aureus USA300 JE2 [11] = test: Growth and viability assay; type: cell-based, Staphylococcus aureus; conditions: for Bacterial concentration after 24 h: 0.5 × MIC
Procedure: Growth and viability assays were performed according to a previously published method ([Thorsing et al., 2013]), with some modifications. In general, the assay was conducted over a 24 h period in a 37°C heating bath with shaking, using S. aureus USA300 JE2 as test strain. […] The culture was diluted 1:100 in BHI broth and grown to early exponential phase (OD600 0.20). […] This culture was grown to OD600 0.20 where sample zero was collected. […] 100 μl samples were serially diluted, spread on MHA plates, and incubated at 37°C for 20–24 h followed by successive counting.
Data were statically analyzed and visualized using RStudio v3.6.3 ([R Core Team, 2020]) and Microsoft excel. In general, the values reflecting the bacterial concentration (CFU/ml) were transformed into a logarithmic scale. In the growth and viability assay, the mean numbers of the bacterial concentrations from the triplicates were plotted against time and standard deviations shown as error bars. To investigate differences in bacterial concentration between treatment groups in the in vivo assay, multiple group comparisons were performed using ANOVA and P < 0.05 considered significant. The data was visualized in a standard box plot.

[12] = system: Salmonella typhimurium TA98
[13] = system: Salmonella typhimurium TA100
[14] = system: Salmonella typhimurium TA1535
[15] = system: Escherichia coli mutant [wp2 (pKM101)]
[16] = system: Salmonella typhimurium TA1537; test: Ames test; conditions: for Mutagenicity ratio (MR): TA1537, 4 μg/well
S. aureus USA300 = test: Induced tolerance assay (23 days); conditions: for MIC: Staphylococcus aureus
[17] = 20% human serum vs assay without serum
[18] = Staphylococcus aureus, ATCCBAA1556, 20% human serum
[19] = Staphylococcus aureus, 20% human serum

SMILES: CC(C)=CCCC(C)CC[N+](C)(C)CCCN1c2ccccc2Sc2ccccc21 (stereo not shown) [JBC 1847]
- MBC [1]: 0.5 µg/mL
- MIC ([1]; read-out: MIC): 0.5 µg/mL
- MBC (S. aureus ATCC BAA-1556 [2]): 0.5 µg/mL
- MIC (S. aureus ATCC BAA-1556 [2]): 0.5 µg/mL
- MBC [3]: 0.5 µg/mL
- MIC [3]: 0.5 µg/mL
- MBC [4]: 1 µg/mL
- MIC [4]: 1 µg/mL
- MBC [5]: 8 µg/mL
- MIC [5]: 8 µg/mL
- MIC values (range over isolates) [6]: 0.5 to 2 µg/mL
- MIC values (range over isolates) [7]: 8 to 32 µg/mL
- Increase in MBC with human serum (S. aureus ATCC BAA-1556 [8]; [17]): 128 fold
- Increase in MIC with human serum (S. aureus ATCC BAA-1556 [8]; [17]): 128 fold
- MBC (S. aureus ATCC BAA-1556 [8]; [18]): 64 µg/mL
- MIC (S. aureus ATCC BAA-1556 [8]; [18]): 64 µg/mL
- Increase in MBC with human serum [9, 17]: 128 fold
- Increase in MIC with human serum [9, 17]: 128 fold
- MBC [9, 19]: 64 µg/mL
- MIC [9, 19]: 64 µg/mL
- Increase in MBC with human serum (S. aureus USA300 JE2 [10]; [17]): 128 fold
- Increase in MIC with human serum (S. aureus USA300 JE2 [10]; [17]): 128 fold
- MBC (S. aureus USA300 JE2 [10]; [19]): 64 µg/mL
- MIC (S. aureus USA300 JE2 [10]; [19]): 64 µg/mL
- Bacterial concentration after 24 h (S. aureus USA300 JE2 [11]; trial 1): approximately 10^3 CFU/ml
- Bacterial concentration after 24 h (S. aureus USA300 JE2 [11]; trial 2): 0 CFU/ml
- Bacterial concentration after 24 h (S. aureus USA300 JE2 [11]; trial 3, increase after 6 h): reached the same level as the control curve
- Viable bacterial cells after 30 min (S. aureus USA300 JE2 [11]; 4 × MIC, all three replicates): no viable bacterial cells
- Bacterial count after 24 h (S. aureus USA300 JE2 [11]; MIC concentration, trial 3): approximately 10^3 CFU/ml
- Bacterial concentration at 24 h (S. aureus USA300 JE2 [11]; MIC concentration, trials 1 and 2): 0 CFU/ml
- MIC (S. aureus USA300 JE2 [11]; Staphylococcus aureus, USA300, 100 ml BHI broth flasks, culture at OD600 0.20, 37°C shaking 20–22 h, read-out: MIC (visually determined)): 4 µg/mL
- Mean number of reverse mutated colonies ([12]; TA98, + S9, 1.5 μg/well): 11.00 ± 2.65
- Mean number of reverse mutated colonies ([12]; TA98, + S9, 4 μg/well): 11.33 ± 3.79
- Mean number of reverse mutated colonies ([12]; TA98, + S9, 10 μg/well): 13.67 ± 4.04
- Mean number of reverse mutated colonies ([12]; TA98, + S9, 64 μg/well): 0.0
- Mean number of reverse mutated colonies ([12]; TA98, −S9, 1.5 μg/well): 13.00 ± 2.00
- Mean number of reverse mutated colonies ([12]; TA98, −S9, 4 μg/well): 9.00 ± 2.00
- Mean number of reverse mutated colonies ([12]; TA98, −S9, 10 μg/well): 9.67 ± 3.51
- Mean number of reverse mutated colonies ([12]; TA98, −S9, 25 μg/well): 0.0
- Mean number of reverse mutated colonies ([12]; TA98, −S9, 64 μg/well): 0.0
- Mean number of reverse mutated colonies ([13]; TA100, + S9, 1.5 μg/well): 21.33 ± 2.08
- Mean number of reverse mutated colonies ([13]; TA100, + S9, 4 μg/well): 19.00 ± 5.29
- Mean number of reverse mutated colonies ([13]; TA100, + S9, 10 μg/well): 13.67 ± 1.53
- Mean number of reverse mutated colonies ([13]; TA100, + S9, 64 μg/well): 0.0
- Mean number of reverse mutated colonies ([13]; TA100, −S9, 1.5 μg/well): 24.33 ± 3.21
- Mean number of reverse mutated colonies ([13]; TA100, −S9, 4 μg/well): 26.67 ± 2.08
- Mean number of reverse mutated colonies ([13]; TA100, −S9, 10 μg/well): 18.00 ± 5.57
- Mean number of reverse mutated colonies ([13]; TA100, −S9, 25 μg/well): 0.0
- Mean number of reverse mutated colonies ([13]; TA100, −S9, 64 μg/well): 0.0
- Mean number of reverse mutated colonies ([14]; TA1535, + S9, 1.5 μg/well): 24.33 ± 3.21
- Mean number of reverse mutated colonies ([14]; TA1535, + S9, 4 μg/well): 26.67 ± 2.08
- Mean number of reverse mutated colonies ([14]; TA1535, + S9, 10 μg/well): 18.00 ± 5.57
- Mean number of reverse mutated colonies ([14]; TA1535, + S9, 64 μg/well): 0.0
- Mean number of reverse mutated colonies ([14]; TA1535, −S9, 1.5 μg/well): 24.33 ± 3.21
- Mean number of reverse mutated colonies ([14]; TA1535, −S9, 4 μg/well): 26.67 ± 2.08
- Mean number of reverse mutated colonies ([14]; TA1535, −S9, 10 μg/well): 18.00 ± 5.57
- Mean number of reverse mutated colonies ([14]; TA1535, −S9, 25 μg/well): 0.0
- Mean number of reverse mutated colonies ([14]; TA1535, −S9, 64 μg/well): 0.0
- Mean number of reverse mutated colonies ([15]; + S9, 1.5 μg/well): 51.33 ± 12.86
- Mean number of reverse mutated colonies ([15]; + S9, 4 μg/well): 40.67 ± 9.07
- Mean number of reverse mutated colonies ([15]; + S9, 10 μg/well): 40.67 ± 13.32
- Mean number of reverse mutated colonies ([15]; + S9, 25 μg/well): 9.67 ± 2.08
- Mean number of reverse mutated colonies ([15]; + S9, 64 μg/well): 0.0
- Mean number of reverse mutated colonies ([15]; −S9, 1.5 μg/well): 33.00 ± 2.65
- Mean number of reverse mutated colonies ([15]; −S9, 4 μg/well): 39.33 ± 5.69
- Mean number of reverse mutated colonies ([15]; −S9, 10 μg/well): 17.33 ± 7.09
- Mean number of reverse mutated colonies ([15]; −S9, 64 μg/well): 0.0
- Mutagenicity ratio (MR) ([16]; absence of S9): above 2
- Mutagenicity ratio (MR) ([16]; presence of S9): above 2
- Mean number of reverse mutated colonies ([16]; TA1537, + S9, 1.5 μg/well): 2.00 ± 2.65
- Mean number of reverse mutated colonies ([16]; TA1537, + S9, 10 μg/well): 0.33 ± 0.58
- Mean number of reverse mutated colonies ([16]; TA1537, + S9, 64 μg/well): 0.0
- Mean number of reverse mutated colonies ([16]; TA1537, −S9, 1.5 μg/well): 5.00 ± 1.00
- Mean number of reverse mutated colonies ([16]; TA1537, −S9, 64 μg/well): 0.0
- MIC (S. aureus USA300; USA300, 24 h, read-out: MIC Day 1): 0.5 µg/mL
- MIC (S. aureus USA300; USA300, 96 h, read-out: Highest MIC): 3.5 µg/mL
- MIC (S. aureus USA300; USA300, 96 h, read-out: MIC values after day 4): 1 to 2.5 µg/mL
- MIC (S. aureus USA300; USA300, 552 h, read-out: MIC Day 23): 3.5 µg/mL
- Increase in MIC (S. aureus USA300; tolerance assay, during the 23 days): 7 fold

Reference: PMC7555839 (Frontiers in Microbiology, 2020)
